This is an account of results in patent US10801077B2, “Influenza A virus variants” (Vertex Pharmaceuticals Incorporated, priority 2014, dated 2020).

Experiment [1] concerns A/California/07/2009 (A/H1N1) influenza virus isolates. The format is cell-based.
For experiment [2], the system named is A/Puerto Rico/8/34 (A/H1N1) influenza virus isolates. The format is cell-based.

With `CC(C)(C)[C@@H](CC(=O)O)Nc1nc(-c2c[nH]c3ncc(F)cc23)ncc1F` [Compound 1], the EC50 shift in experiment [1] turned out to be 500 fold; in experiment [2], 286 fold.
